Measured values reported in patent US20060063747A1, “Paroxetine cholate or cholic acid derivative salts, and composition comprising paroxetine and cholic acid or derivative thereof” (priority 2004, published 2006).
Structures can show the parent of a compound that is named as a salt.

Assay: Stability comparison under severe conditions (0.3% hydrogen peroxide, 80° C., content by HPLC)
Format: physicochemical
Details: for Drug content, 24 hrs / Drug content, 48 hrs / Drug content, 120 hrs / Drug content, Initial / Drug content, 72 hrs / Drug content, 144 hrs: 1 mg/mL in 0.3% hydrogen peroxide, chamber at 80° C.
Experimental: Each of the drugs shown in Table 5 was completely dissolved in a 0.3% hydrogen peroxide solution at a concentration of 1 mg/mL. While storage under stressed conditions at 80° C., changes in the contents of the drugs were monitored. The 0.3% hydrogen peroxide solution is a solution commonly used to quickly determine the stability of drugs and provides stressed conditions for artificial acceleration of the oxidation of the drugs. The content analysis was conducted by HPLC in accordance with the paroxetine content analysis defined in USP.

Fc1ccc([C@@H]2CCNC[C@H]2COc2ccc3c(c2)OCO3)cc1 [Paroxetine HCl, paroxetine hydrochloride]
Drug content, 24 hrs: 84.5% | Drug content, 48 hrs (hydrochloride): 53.8% | Drug content, 120 hrs (hydrochloride): 13.4% | Drug content, Initial: 100.0%

Fc1ccc([C@@H]2CCNC[C@H]2COc2ccc3c(c2)OCO3)cc1.O=C(O)[C@H]1OC(O)[C@H](O)[C@@H](O)[C@@H]1O [Paroxetine glucuronate]
Drug content, 24 hrs: 92.8% | Drug content, 48 hrs: 59.0% | Drug content, 120 hrs: 12.3% | Drug content, Initial: 100.0%

C[C@H](CCC(=O)NCC(=O)O)[C@H]1CC[C@H]2[C@@H]3[C@H](O)C[C@@H]4C[C@H](O)CC[C@]4(C)[C@H]3C[C@H](O)[C@]12C.Fc1ccc([C@@H]2CCNC[C@H]2COc2ccc3c(c2)OCO3)cc1 [Paroxetine glycocholate, paroxetine glycocholate]
Drug content, 24 hrs: 96.8% | Drug content, 48 hrs: 89.6% | Drug content, 120 hrs: 54.3% | Drug content, Initial: 100.0% | Stability compared to other paroxetine salts (in words) (0.3% hydrogen peroxide, 80° C., HPLC): highly stable

Fc1ccc([C@@H]2CCNC[C@H]2COc2ccc3c(c2)OCO3)cc1.O=S(=O)(O)c1ccc2ccccc2c1 [Paroxetine napsylate]
Drug content, 24 hrs: 60.4% | Drug content, 72 hrs: 16.1% | Drug content, 144 hrs: 3.5% | Drug content, Initial: 100.0%

Fc1ccc([C@@H]2CCNC[C@H]2COc2ccc3c(c2)OCO3)cc1.Fc1ccc([C@@H]2CCNC[C@H]2COc2ccc3c(c2)OCO3)cc1.O.O=C(O)C(O)C(O)C(=O)O.O=C(O)C(O)C(O)C(=O)O [Paroxetine tartarate]
Drug content, 24 hrs: 81.3% | Drug content, 72 hrs: 28.3% | Drug content, 144 hrs: 4.8% | Drug content, Initial: 100.0%

paroxetine methanesulfonate
Drug content, 24 hrs: 74.4% | Drug content, 48 hrs: 31.8% | Drug content, 72 hrs: 16.6% | Drug content, Initial: 100.0%
